In patent publication US6355799B1, “Substituted benzene compounds, process for their preparation, and herbicidal and defoliant compositions containing them” (ISK Americas Incorporated, priority 1997, dated 2002):

Assays:
Format in all cases: in vivo
[1] = test system: redroot pigweed (Amaranthus retroflexus, AMARE); assay: Pre-emerge test, greenhouse herbicide activity screening; settings: rating scale 0-100, 14 days after application
Method in brief: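 Compounds in acetone were track-sprayed at 15-1000 g ai/ha (187 l/ha) on sandy loam pots: pre-emerge one day after seeding, post-emerge at 2-3 leaf stage with 0.25% v/v non-ionic surfactant. Phytotoxicity was rated 14 days later on a 0 (no damage) to 100 (complete death) scale.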

[2] = test system: green foxtail (Setaria viridis, SETVI); assay: as above; settings: rating scale 0-100, 14 days after application
Method in brief: (§1)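 Plants grown in 10 cm pots of sandy loam mix received acetone-dissolved compounds through a moving flat-fan nozzle. Doses ranged from 15 to 1000 g ai/ha. Pre-emerge pots were seeded one day earlier, post-emerge pots 8–21 days earlier. Fourteen days on, each pot was graded 0–100 for damage.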

[3] = test system: ivyleaf morningglory (Ipomoea hederacea, IPOHE); assay: as above; settings: rating scale 0-100, 14 days after application
Method in brief: as §1

[4] = test system: johnsongrass (Sorghum halepense, SORHA); assay: as above; settings: rating scale 0-100, 14 days after application
Method in brief: as §1

[5] = test system: barnyardgrass (Echinochloa crus-galli, ECHCG); assay: as above; settings: rating scale 0-100, 14 days after application
Method in brief: as §1

[6] = test system: large crabgrass (Digitaria sanguinalis, DIGSA); assay: as above; settings: rating scale 0-100, 14 days after application
Method in brief: as §1

[7] = test system: velvetleaf (Abutilon theophrasti, ABUTH); assay: as above; settings: rating scale 0-100, 14 days after application
Method in brief: as §1

[8] = test system: lambsquarters (Chenopodium album, CHEAL); assay: as above; settings: rating scale 0-100, 14 days after application
Method in brief: as §1

[9] = test system: sicklepod (Cassia obtusifolia, CASOB); assay: as above; settings: rating scale 0-100, 14 days after application
Method in brief: as §1

[10] = test system: green foxtail (Setaria viridis, SETVI); assay: Post-emerge test, greenhouse herbicide activity screening; settings: rating scale 0-100 (0 no damage, 100 complete death), 14 days after application
Method in brief: as §1

[11] = test system: ivyleaf morningglory (Ipomoea hederacea, IPOHE); assay: as above; settings: rating scale 0-100 (0 no damage, 100 complete death), 14 days after application
Method in brief: as §1

[12] = test system: johnsongrass (Sorghum halepense, SORHA); assay: as above; settings: rating scale 0-100 (0 no damage, 100 complete death), 14 days after application
Method in brief: as §1

[13] = test system: barnyardgrass (Echinochloa crus-galli, ECHCG); assay: as above; settings: rating scale 0-100 (0 no damage, 100 complete death), 14 days after application
Method in brief: as §1

[14] = test system: large crabgrass (Digitaria sanguinalis, DIGSA); assay: as above; settings: rating scale 0-100 (0 no damage, 100 complete death), 14 days after application
Method in brief: as §1

[15] = test system: velvetleaf (Abutilon theophrasti, ABUTH); assay: as above; settings: rating scale 0-100 (0 no damage, 100 complete death), 14 days after application
Method in brief: as §1

[16] = test system: redroot pigweed (Amaranthus retroflexus, AMARE); assay: as above; settings: rating scale 0-100 (0 no damage, 100 complete death), 14 days after application
Method in brief: as §1

[17] = test system: lambsquarters (Chenopodium album, CHEAL); assay: as above; settings: rating scale 0-100 (0 no damage, 100 complete death), 14 days after application
Method in brief: as §1

[18] = test system: sicklepod (Cassia obtusifolia, CASOB); assay: as above; settings: rating scale 0-100 (0 no damage, 100 complete death), 14 days after application
Method in brief: as §1

[19] = test system: field corn (Zea mays L., var. Dekalb 535, CORN); assay: Post-emerge test, crop safety; settings: rating scale 0-100 (0 no damage, 100 complete death), 14 days after application
Method in brief: (§2)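 Each test used a mechanized track sprayer delivering 187 l/ha of acetone solution at 15–1000 g ai/ha. Post-emerge foliage at 2–3 leaves was treated with added 0.25% v/v non-ionic surfactant and bottom-watered only. Injury was assessed on day 14, where 100 means total kill.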

[20] = test system: upland rice (Oryza sp., var. Tebonnet, RICE); assay: Post-emerge test, crop safety; settings: rating scale 0-100 (0 no damage, 100 complete death), 14 days after application
Method in brief: as §2

[21] = test system: field corn (Zea mays L., var. Dekalb 535, CORN); assay: Pre-emerge test, crop safety; settings: rating scale 0-100, 14 days after application
Method in brief: as §1

[22] = test system: upland rice (Oryza sp., var. Tebonnet, RICE); assay: Pre-emerge test, crop safety; settings: rating scale 0-100, 14 days after application
Method in brief: as §1

COc1c(Cl)cc(F)c(-n2c(=O)cc(C(F)(F)F)n(C)c2=O)c1CC(Cl)C(=O)OCCOc1ccccc1 (single isomer, unassigned) [14-28]
Pre-emerge herbicidal activity, phytotoxicity rating AMARE ([1]; 63 g ai/ha): 90 | Pre-emerge herbicidal activity, phytotoxicity rating AMARE ([1]; 250 g ai/ha): 100 | Pre-emerge herbicidal activity, phytotoxicity rating SETVI ([2]; 63 g ai/ha): 0 | Pre-emerge herbicidal activity, phytotoxicity rating SETVI ([2]; 250 g ai/ha): 0 | Pre-emerge herbicidal activity, phytotoxicity rating IPOHE ([3]; 63 g ai/ha): 0 | Pre-emerge herbicidal activity, phytotoxicity rating IPOHE ([3]; 250 g ai/ha): 0 | Pre-emerge herbicidal activity, phytotoxicity rating SORHA ([4]; 63 g ai/ha): 0 | Pre-emerge herbicidal activity, phytotoxicity rating SORHA ([4]; 250 g ai/ha): 40 | Pre-emerge herbicidal activity, phytotoxicity rating ECHCG ([5]; 63 g ai/ha): 0 | Pre-emerge herbicidal activity, phytotoxicity rating ECHCG ([5]; 250 g ai/ha): 20 | Pre-emerge herbicidal activity, phytotoxicity rating DIGSA ([6]; 63 g ai/ha): 0 | Pre-emerge herbicidal activity, phytotoxicity rating DIGSA ([6]; 250 g ai/ha): 100 | Pre-emerge herbicidal activity, phytotoxicity rating ABUTH ([7]; 63 g ai/ha): 0 | Pre-emerge herbicidal activity, phytotoxicity rating ABUTH ([7]; 250 g ai/ha): 80 | Pre-emerge herbicidal activity, phytotoxicity rating CHEAL ([8]; 63 g ai/ha): 0 | Pre-emerge herbicidal activity, phytotoxicity rating CHEAL ([8]; 250 g ai/ha): 95 | Pre-emerge herbicidal activity, phytotoxicity rating CASOB ([9]; 63 g ai/ha): 0 | Pre-emerge herbicidal activity, phytotoxicity rating CASOB ([9]; 250 g ai/ha): 0 | Post-emerge Herbicidal Activity, phytotoxicity rating SETVI ([10]; Rate 63 g ai/ha): 0 | Post-emerge Herbicidal Activity, phytotoxicity rating SETVI ([10]; Rate 250 g ai/ha): 30 | Post-emerge Herbicidal Activity, phytotoxicity rating IPOHE ([11]; Rate 63 g ai/ha): 50 | Post-emerge Herbicidal Activity, phytotoxicity rating IPOHE ([11]; Rate 250 g ai/ha): 70 | Post-emerge Herbicidal Activity, phytotoxicity rating SORHA ([12]; Rate 63 g ai/ha): 0 | Post-emerge Herbicidal Activity, phytotoxicity rating SORHA ([12]; Rate 250 g ai/ha): 50 | Post-emerge Herbicidal Activity, phytotoxicity rating ECHCG ([13]; Rate 63 g ai/ha): 100 | Post-emerge Herbicidal Activity, phytotoxicity rating ECHCG ([13]; Rate 250 g ai/ha): 100 | Post-emerge Herbicidal Activity, phytotoxicity rating DIGSA ([14]; Rate 63 g ai/ha): 20 | Post-emerge Herbicidal Activity, phytotoxicity rating DIGSA ([14]; Rate 250 g ai/ha): 50 | Post-emerge Herbicidal Activity, phytotoxicity rating ABUTH ([15]; Rate 63 g ai/ha): 100 | Post-emerge Herbicidal Activity, phytotoxicity rating ABUTH ([15]; Rate 250 g ai/ha): 100 | Post-emerge Herbicidal Activity, phytotoxicity rating AMARE ([16]; Rate 63 g ai/ha): 90 | Post-emerge Herbicidal Activity, phytotoxicity rating AMARE ([16]; Rate 250 g ai/ha): 100 | Post-emerge Herbicidal Activity, phytotoxicity rating CHEAL ([17]; Rate 63 g ai/ha): 95 | Post-emerge Herbicidal Activity, phytotoxicity rating CHEAL ([17]; Rate 250 g ai/ha): 100 | Post-emerge Herbicidal Activity, phytotoxicity rating CASOB ([18]; Rate 63 g ai/ha): 30 | Post-emerge Herbicidal Activity, phytotoxicity rating CASOB ([18]; Rate 250 g ai/ha): 30 | Post-emerge phytotoxicity rating CORN (crop damage) ([19]; Rate 63 g ai/ha): 10 | Post-emerge phytotoxicity rating CORN (crop damage) ([19]; Rate 250 g ai/ha): 70 | Post-emerge phytotoxicity rating RICE (crop damage) ([20]; Rate 63 g ai/ha): 0 | Post-emerge phytotoxicity rating RICE (crop damage) ([20]; Rate 250 g ai/ha): 40 | Pre-emerge phytotoxicity rating, crop damage CORN ([21]; 63 g ai/ha): 0 | Pre-emerge phytotoxicity rating, crop damage CORN ([21]; 250 g ai/ha): 20 | Pre-emerge phytotoxicity rating, crop damage RICE ([22]; 63 g ai/ha): 0 | Pre-emerge phytotoxicity rating, crop damage RICE ([22]; 250 g ai/ha): 0
